The record followed here is US8933110B2, “Hepatitis C virus inhibitors” (Enanta Pharmaceuticals, Inc., priority 2010, dated 2015).

The structures appear in SMILES notation. Where two headings read alike, the source gives them in different places.

For this experiment, the system named is HCV 1b genotype replicon. In words: HCV replicon assay (qRT-PCR or luciferase), genotype 1b. Conditions: Hepatitis C virus. The format is cell-based. An excerpt:
HCV replicon cell lines (kindly provided by R. Bartenschlager) isolated from colonies as described by Lohman et al. (Lohman et al. (1999) Science 285: 110-113, expressly incorporated by reference in its entirety) and used for all experiments. The HCV replicon has the nucleic acid sequence set forth in EMBL Accession No.: AJ242651, the coding sequence of which is from nucleotides 1801 to 8406.
The coding sequence of the published HCV replicon was synthesized and subsequently assembled in a modified plasmid pBR322 (Promega, Madison, Wis.) using standard molecular biology techniques. One replicon cell line (“SGR 11-7”) stably expresses HCV replicon RNA which consists of (i) the HCV 5′UTR fused to the first 12 amino acids of the capsid protein, (ii) the neomycin phosphotransferase gene (neo), (iii) the IRES from encephalomyocarditis virus (EMCV) and (iv) HCV NS2 to NS5B genes and the HCV 3′UTR. Another replicon cell line (“Huh-luc/neo-ET”) described by Vrolijk et. al. (Vrolijk et. al. (2003) Journal of Virological Methods 110:201-209, expressly incorporated by reference in its entirety) stably expresses HCV replicon RNA which consists of (i) the HCV 5′UTR fused to the first 12 amino acids of the capsid protein, (ii) the firefly luciferase reporter gene, (iii) the ubiquitin gene, (iv) the neomycin phosphotransferase gene (neo), (v) the IRES from encephalomyocarditis virus (EMCV) and (vi) HCV NS3 to NS5B genes that harbor cell culture adaptive mutations (E1202G, T12801, K1846T) and the HCV 3′UTR.
These cell lines are maintained at 37° C., 5% CO2, 100% relative humidity in DMEM (Cat#11965-084, Invitrogen), with 10% fetal calf serum (“FCS”, Invitrogen), 1% non-essential amino acids (Invitrogen), 1% of Glutamax (Invitrogen), 1% of 100× penicillin/streptomycin (Cat#15140-122, Invitrogen) and Geneticin (Cat#10131-027, Invitrogen) at 0.75 mg/ml or 0.5 mg/ml for 11-7 and Huh-luc/neo-ET cells, respectively.
EC50 values of single agent compounds were determined by HCV RNA detection using quantitative RT-PCR, according to the manufacturer's instructions, with a TAQMAN® One-Step RT-PCR Master Mix Reagents Kit (Cat#AB 4309169, Applied Biosystems) on an ABI Model 7500 thermocycler. EC50 values of combinations are similarly determined by HCV RNA detection using quantitative RT-PCR. The TAQMAN primers to use for detecting and quantifying HCV RNA obtained from Integrated DNA Technologies. HCV RNA is normalized to GAPDH RNA levels in drug-treated cells, which is detected and quantified using the Human GAPDH Endogenous Control Mix (Applied Biosystems, AB 4310884E). Total cellular RNA is purified from 96-well plates using the RNAqueous 96 kit (Ambion, Cat#AM1812). Chemical agent cytotoxicity is evaluated using an MTS assay according to the manufacturer's directions (Promega).
Since clinical drug resistance often develops in viral infections following single agent therapies, there is a need to assess the additive, antagonistic, or synergistic properties of combination therapies. We use the HCV replicon system to assess the potential use of the compound of the present invention or in combination therapies with Interferon alpha, cyclosporine analogs and inhibitors targeting other HCV proteins. The acute effects of a single or combinations of drugs are studied in the “Huh-luc/neo-ET” replicon with each chemical agent titrated in an X or Y direction in a 6 point two-fold dilution curve centered around the EC50 of each drug. Briefly, replicon cells are seeded at 7,000 cells per well in 90 ul DMEM (without phenol red, Invitrogen Cat.#31053-036) per well with 10% FCS, 1% non-essential amino acids, 1% of Glutamax and 1% of 100× penicillin/streptomycin and incubated overnight at 37° C., 5% CO2, 100% relative humidity. […]
On the technique in general: Replicon systems follow genome replication, usually without infectious particles.

Where [1] appears, read: read-out: Genotype-1b replicon EC50 Range.
Setting [2] is: read-out: Genotype-1b replicon EC50.

On to `COC(=O)N[C@H]1CCCCOCc2[nH]c(nc2-c2ccc(-c3ccc(-c4c[nH]c([C@@H]5CCCN5C(=O)[C@@H](NC(=O)OC)C(C)C)n4)cc3)cc2)[C@@H]2CCCN2C1=O` [Example 83], for which the EC50 under setting [1] is under 0.1 nM. On to `COC(=O)N[C@H]1CCCCOCc2[nH]c(nc2-c2ccc(-c3ccc(-c4c[nH]c([C@@H]5CC6(CC6)CN5C(=O)[C@@H](NC(=O)OC)C(C)C)n4)cc3)cc2)[C@@H]2CCCN2C1=O` [Example 258], for which the half-maximal effective concentration (EC50) under setting [2] was found to be 0.014 nM and the EC50 under setting [1] is under 0.1 nM. Consider `COC(=O)N[C@H](C(=O)N1CCC[C@H]1c1nc(-c2ccc(-c3ccc(-c4nc5[nH]c4COCCC[C@H](C)[C@H](NC(=O)OC)C(=O)N4CCC[C@@H]54)cc3)cc2)c[nH]1)C(C)C` [Example 317], for which the EC50 under setting [1] is under 0.1 nM. As to `COC(=O)N[C@H](C(=O)N1CCC[C@H]1c1nc(-c2ccc(-c3ccc(-c4nc5[nH]c4COC/C=C/[C@H](C)[C@H](NC(=O)OC)C(=O)N4CCC[C@@H]54)cc3)cc2)c[nH]1)C(C)C` [Example 318], the half-maximal effective concentration (EC50) under setting [1] is 0.1 to 1 nM. With `COC(=O)N[C@H]1CCCCCOCc2[nH]c(nc2-c2ccc(-c3ccc(-c4c[nH]c([C@@H]5CCCN5C(=O)[C@@H](NC(=O)OC)C(C)C)n4)cc3)cc2)[C@@H]2CCCN2C1=O` [Example 322], the EC50 under setting [1] is under 0.1 nM.

On to `COC(=O)N[C@H]1Cc2cc(on2)COCc2[nH]c(nc2-c2ccc(-c3ccc(-c4c[nH]c([C@@H]5CCCN5C(=O)[C@@H](NC(=O)OC)C(C)C)n4)cc3)cc2)[C@@H]2CCCN2C1=O` [Example 333], for which the EC50 was 0.083 nM under setting [2] and under 0.1 nM under setting [1]. Take `COC(=O)N[C@H]1CCCCOCc2[nH]c(nc2-c2ccc(-c3ccc(-c4nc5[nH]c4COCCCC[C@H](NC(=O)OC)C(=O)N4CCC[C@@H]54)cc3)cc2)[C@@H]2CCCN2C1=O` [Example 336]: the EC50 under setting [2] came out at 0.175 nM and the EC50 under setting [1] lay within 0.1 to 1 nM. Consider `COC(=O)N[C@H]1C/C=C/COCc2[nH]c(nc2-c2ccc(-c3ccc(-c4c[nH]c([C@@H]5CCCN5C(=O)[C@@H](NC(=O)OC)C(C)C)n4)cc3)cc2)[C@@H]2CCCN2C1=O` [Example 344], for which the EC50 is 0.047 nM under setting [2] and under 0.1 nM under setting [1].

`COC(=O)N[C@H](C(=O)N1CCC[C@H]1c1nc(-c2ccc(-c3ccc(-c4nc5[nH]c4COCCCCO[C@H](C)[C@H](NC(=O)OC)C(=O)N4CCC[C@@H]54)cc3)cc2)c[nH]1)C(C)C` [Example 349]: under setting [1], the EC50 is under 0.1 nM. Take `COC(=O)N[C@H]1COCCCCOCc2[nH]c(nc2-c2ccc(-c3ccc(-c4c[nH]c([C@@H]5CCCN5C(=O)[C@@H](NC(=O)OC)C(C)C)n4)cc3)cc2)[C@@H]2CCCN2C1=O` [Example 353]: the EC50 under setting [2] is 0.023 nM and the EC50 under setting [1] is under 0.1 nM. For the compound `COC(=O)N[C@H]1CCCCC/C=C\COCc2[nH]c(nc2-c2ccc(-c3ccc(-c4c[nH]c([C@@H]5CCCN5C(=O)[C@@H](NC(=O)OC)C(C)C)n4)cc3)cc2)[C@@H]2CCCN2C1=O` [Example 355], the EC50 under setting [1] was under 0.1 nM.

For the compound `COC(=O)N[C@H]1CCCCCCCCOCc2[nH]c(nc2-c2ccc(-c3ccc(-c4c[nH]c([C@@H]5CCCN5C(=O)[C@@H](NC(=O)OC)C(C)C)n4)cc3)cc2)[C@@H]2CCCN2C1=O` [Example 356], under setting [1], the EC50 was under 0.1 nM. Take `COC(=O)N[C@H]1C/C=C/COCc2[nH]c(nc2-c2ccc(-c3ccc(-c4c[nH]c([C@@H]5CCCN5C(=O)[C@@H](NC(=O)OC)C(C)C)n4)cc3)cc2)CN(C)C1=O` [Example 359]: the EC50 under setting [1] was over 1 nM. For the compound `COC(=O)N[C@H]1CCCCCCOCc2[nH]c(nc2-c2ccc(-c3ccc(-c4c[nH]c([C@@H]5CCCN5C(=O)[C@@H](NC(=O)OC)C(C)C)n4)cc3)cc2)[C@@H]2CCCN2C1=O` [Example 366], the concentration for a half-maximal effect (EC50) under setting [1] is under 0.1 nM. Still for that read-out and setting: next, `COC(=O)N[C@H]1CCCCCCCOCc2[nH]c(nc2-c2ccc(-c3ccc(-c4c[nH]c([C@@H]5CCCN5C(=O)[C@@H](NC(=O)OC)C(C)C)n4)cc3)cc2)[C@@H]2CCCN2C1=O` [Example 368]: under 0.1 nM.

As usually defined, the EC50 is the concentration that produces a half-maximal response.
